Source: patent US7105505B2, “Benzimidazole derivatives useful as histamine H3 antagonists” (Schering Corporation, priority 2002, dated 2006)

biological target: T1, H3 receptors (Cavia porcellus, UniProt Q9JI35); assay: H3 Receptor Binding Assay (guinea pig brain membranes); conditions: Receptor Source Guinea pig, [3H]R-α-methyl histamine or [3H]Nα-methyl histamine
T1 construct: The source of the H3 receptors in this experiment was guinea pig brain; from tissue; host or cells: guinea pig brain membranes
Experimental: General Procedure for H3Receptor Binding Assay
The source of the H3 receptors in this experiment was guinea pig brain. The animals weighed 400–600 g. The brain tissue was homogenized with a solution of 50 mM Tris, pH 7.5. The final concentration of tissue in the homogenization buffer was 10% w/v. The homogenates were centrifuged at 1,000×g for 10 min. in order to remove clumps of tissue and debris. The resulting supernatants were then centrifuged at 50,000×g for 20 min. in order to sediment the membranes, which were next washed three times in homogenization buffer (50,000×g for 20 min. each). The membranes were frozen and stored at −70° C. until needed.
All compounds to be tested were dissolved in DMSO and then diluted into the binding buffer (50 mM Tris, pH 7.5) such that the final concentration was 2 μg/ml with 0.1% DMSO. Membranes were then added (400 μg of protein) to the reaction tubes. The reaction was started by the addition of 3 nM [^3H]R-α-methyl histamine (8.8 Ci/mmol) or 3 nM [^3H]N^α-methyl histamine (80 Ci/mmol) and continued under incubation at 30° C. for 30 min. Bound ligand was separated from unbound ligand by filtration, and the amount of radioactive ligand bound to the membranes was quantitated by liquid scintillation spectrometry. All incubations were performed in duplicate and the standard error was always less than 10%. Compounds that inhibited more than 70% of the specific binding of radioactive ligand to the receptor were serially diluted to determine a Ki (nM).

T1 sequence (Q9JI35 whole entry): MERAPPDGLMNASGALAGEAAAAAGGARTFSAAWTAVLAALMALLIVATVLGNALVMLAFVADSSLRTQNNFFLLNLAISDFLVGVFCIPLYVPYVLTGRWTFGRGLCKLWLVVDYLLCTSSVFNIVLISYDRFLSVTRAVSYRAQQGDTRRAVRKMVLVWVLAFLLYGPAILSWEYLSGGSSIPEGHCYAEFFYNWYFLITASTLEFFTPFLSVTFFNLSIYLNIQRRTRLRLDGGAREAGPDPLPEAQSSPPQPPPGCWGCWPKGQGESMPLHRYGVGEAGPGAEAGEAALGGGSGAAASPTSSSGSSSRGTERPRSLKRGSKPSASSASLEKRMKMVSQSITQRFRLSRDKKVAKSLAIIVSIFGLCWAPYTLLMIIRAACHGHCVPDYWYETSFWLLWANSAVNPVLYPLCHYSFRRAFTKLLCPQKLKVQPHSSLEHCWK

Ki	SMILES
13 nM	Nc1cc(CN2CCC(C(=O)N3CCC(c4nc5ccc(Cl)cc5[nH]4)CC3)CC2)ccn1 [Example 3]
30 nM	Nc1cc(CN2CCC(C(=O)N3CCC(n4c(-c5cc(Cl)cc(Cl)c5)nc5ccc(Cl)cc54)CC3)CC2)ccn1 [Example 54]
1 nM	Nc1cc(CN2CCC(C(=O)N3CCC(n4c(-c5ccccn5)nc5cc(F)c(F)cc54)CC3)CC2)ccn1 [Example 71]
1 nM	Cc1cc(-c2nc3cc(F)ccc3n2C2CCN(C(=O)C3CCN(Cc4ccnc(N)c4)CC3)CC2)no1 [Example 94]
0.3 nM	Nc1cc(CN2CCC(C(=O)N3CCC(n4c(N5CCOCC5)nc5cc(F)ccc54)CC3)CC2)ccn1 [Example 120]
0.5 nM	Nc1cc(CN2CCC(C(=O)N3CCC(n4c(C5CC5)nc5cccnc54)CC3)CC2)ccn1 [Example 170]
0.4 nM	Nc1cc(CN2CCC(C(=O)N3CCC(n4c(-c5ccc(F)cc5)nc5cccnc54)CC3)CC2)ccn1 [Example 173]
10 nM	Nc1cc(CN2CCC(C(=O)N3CCC(n4c(-c5cc(-c6ccc(F)cc6)on5)nc5cccnc54)CC3)CC2)ccn1 [Example 195]
7 nM	Nc1ncc(CN2CCC(C(=O)N3CCC(n4c(-c5ccccn5)nc5cc(F)ccc54)CC3)CC2)cn1 [Example 211]
13 nM	Nc1ncc(CN2CCC(F)(C(=O)N3CCC(n4c(-c5ccc(F)cc5F)nc5cc(F)ccc54)CC3)CC2)cn1 [Example 254]

biological target: T2, human histamine H3 receptor (Homo sapiens, UniProt Q9Y5N1); assay: rHu H3 Binding Assay (HEK-293 membranes); conditions: Receptor Source rHu, 1.2 nM [3H]Nα-methylhistamine
T2 construct: expressed in transfected cells
Experimental: General Procedure for rHu H3Binding Assay
[^3H]N^∝-methylhistamine (82 Ci/mmole) was obtained from Dupont NEN. Thioperamide was obtained from the Chemical Research Department, Schering-Plough Research Institute.
HEK-293 human embryonic kidney cells stably expressing the human histamine H3 receptor were cultured in Dulbecco's modified Eagle's medium/10% fetal calf serum/penicillin (100 U/ml)/streptomycin (100 μg/ml)/Geneticin (0.5 mg/ml) at 37° C. in a humidified 5% CO2 atmosphere. Cells were harvested between passages five and twenty at 37° C. in 5 mM EDTA/Hank's balanced salt solution and processed for membrane preparation. After low-speed centrifugation, ten min at 1000×g, they were put into ten volumes of ice-cold buffer and disrupted with a Polytron (PTA 35/2 tip, 30 sec at setting 6). After subsequent low-speed centrifugation, supernatant was centrifuged ten min at 50,000×g. The high-speed pellet was resuspended in the original volume of buffer, a sample was taken for protein assay (bicinchoninic acid, Pierce) and the suspension was centrifuged again at 50,000×g. Membranes were resuspended at 1 mg of protein/ml of buffer and frozen at −80° C. until use.
Membrane (15 μg of protein) was incubated with 1.2 nM [^3H]N^∝-methyl-histamine, without or with inhibitor compounds, in a total volume of 200 μl of buffer. Nonspecific binding was determined in the presence of 10^−5 M thioperamide. Assay mixtures were incubated for 30 min at 30° C. in polypropylene, 96-well, deep-well plates, then filtered through 0.3% polyethylenimine-soaked GF/B filters. These were washed three times with 1.2 ml of 4° C. buffer, dried in a microwave oven, impregnated with Meltilex wax scintillant and counted at 40% efficiency in a Betaplate scintillation counter (Wallac).
IC50 values were interpolated from the data or were determined from curves fit to the data with Prism nonlinear least squares curve-fitting program (GraphPad Software, San Diego, Calif.). Ki values were determined from IC50 values according to the Cheng and Prusoff equation.

T2 sequence (Q9Y5N1 whole entry): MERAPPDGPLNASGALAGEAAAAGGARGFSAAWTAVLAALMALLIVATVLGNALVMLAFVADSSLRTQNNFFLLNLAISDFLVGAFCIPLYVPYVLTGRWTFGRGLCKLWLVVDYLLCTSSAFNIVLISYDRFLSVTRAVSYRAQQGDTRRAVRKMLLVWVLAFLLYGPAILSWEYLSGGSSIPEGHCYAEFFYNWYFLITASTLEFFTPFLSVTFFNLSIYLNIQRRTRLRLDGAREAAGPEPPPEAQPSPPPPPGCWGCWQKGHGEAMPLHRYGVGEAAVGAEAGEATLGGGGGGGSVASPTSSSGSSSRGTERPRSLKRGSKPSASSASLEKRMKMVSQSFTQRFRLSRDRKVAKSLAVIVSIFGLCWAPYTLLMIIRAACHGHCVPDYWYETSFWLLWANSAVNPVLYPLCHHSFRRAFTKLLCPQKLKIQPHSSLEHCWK

SMILES	Ki
Nc1ncc(CN2CCC(F)(C(=O)N3CCC(n4c(-c5ccccn5)nc5cccnc54)CC3)CC2)cn1 [Example 5]	9 nM
CCOc1nc2cc(F)ccc2n1C1CCN(C(=O)C2(F)CCN(Cc3cnc(N)nc3)CC2)CC1 [Example 270]	4 nM
Nc1ncc(CN2CCC(F)(C(=O)N3CCC(n4c(-c5ccoc5)nc5cccnc54)CC3)CC2)cn1 [Example 281]	4 nM
COc1nc2cc(F)ccc2n1C1CCN(C(=O)C2(F)CCN(Cc3cnc(N)nc3)CC2)CC1 [Example 297]	4 nM
CSc1nc2cccnc2n1C1CCN(C(=O)C2(F)CCN(Cc3cnc(N)nc3)CC2)CC1 [Example 315]	5 nM
CCOc1nc2cccnc2n1C1CCN(C(=O)C2(F)CCN(Cc3cnc(N)nc3)CC2)CC1 [Example 316]	5 nM
Nc1ncc(CN2CCC(F)(C(=O)N3CCC(n4c(-c5cccc[n+]5[O-])nc5cccnc54)CC3)CC2)cn1 [Example 388]	30 nM
O=C(N1CCC(n2c(-c3ccccn3)nc3cc(F)ccc32)CC1)C1(F)CCN(Cc2ccnnc2)CC1 [Example 423]	5 nM
CCCOc1nc2cc(F)ccc2n1C1CCN(C(=O)C2(F)CCN(Cc3cnc(N)nc3)CC2)CC1 [Example 459]	4 nM
CCCOc1nc2cc(F)ccc2n1C1CCN(C(=O)C2CCN(Cc3cnc(N)nc3)CC2)CC1 [Example 460]	4 nM
CCc1nc2cc(F)ccc2n1C1CCN(C(=O)C2(F)CCN(Cc3cnc(N)nc3)CC2)CC1 [Example 468]	10 nM
CSc1nc2cc(Cl)ccc2n1C1CCN(C(=O)C2CCN(Cc3cnc(N)nc3)CC2)CC1 [Example 502]	7 nM
Nc1ncc(CN2CCC(C(=O)N3CCC(n4c(SCc5ccccc5)nc5cc(F)ccc54)CC3)CC2)cn1 [Example 547]	14 nM
CCCOc1nc2cccnc2n1C1CCN(C(=O)C2CCN(Cc3ccnnc3)CC2)CC1 [Example 552]	4 nM
O=C(C1CCN(Cc2ccnnc2)CC1)N1CCC(n2c(-c3ccccn3)nc3cc(Cl)ccc32)CC1 [Example 557]	19 nM
CCSc1nc2cc(C(F)(F)F)ccc2n1C1CCN(C(=O)C2CCN(Cc3cnc(N)nc3)CC2)CC1 [Example 577]	44 nM
CCCSc1nc2cccnc2n1C1CCN(C(=O)C2CCN(Cc3ccnnc3)CC2)CC1 [Example 588]	6 nM
CCOc1nc2cc(Cl)ccc2n1C1CCN(C(=O)C2CCN(Cc3ccnnc3)CC2)CC1 [Example 592]	9 nM
CSc1nc2cc(S(C)(=O)=O)ccc2n1C1CCN(C(=O)C2CCN(Cc3ccnnc3)CC2)CC1 [Example 595]	41 nM
CCc1nc2cc(F)ccc2n1C1CCN(C(=O)C2CCN(Cc3cnc(N)nc3)CC2)CC1 [Example 598]	17 nM
CCCc1nc2cc(F)ccc2n1C1CCN(C(=O)C2CCN(Cc3cnc(N)nc3)CC2)CC1 [Example 618]	9 nM
CSc1nc2cc(Cl)ccc2n1C1CCN(C(=O)C2(F)CCN(Cc3cnc(N)nc3)CC2)CC1 [Example 625]	10 nM
CSc1nc2cc(Cl)ccc2n1C1CCN(C(=O)C2CCN(Cc3ccnnc3)CC2)CC1 [Example 628]	4 nM

Next, values leading:

Ki	SMILES
1 nM	Nc1cc(CN2CCC(C(=O)N3CCC(n4c(-c5ccccn5)nc5cc(F)ccc54)CC3)CC2)ccn1 [Example 1]
1 nM	CSc1nc2cc(F)ccc2n1C1CCN(C(=O)C2CCN(Cc3ccnc(N)c3)CC2)CC1 [Example 109]
2 nM	Nc1cc(CN2CCC(F)(C(=O)N3CCC(n4c(N5CCOCC5)nc5cc(F)ccc54)CC3)CC2)ccn1 [Example 165]
4 nM	CSc1nc2cc(F)ccc2n1C1CCN(C(=O)C2CCN(Cc3cnc(N)nc3)CC2)CC1 [Example 269]
3 nM	CSc1nc2cc(F)ccc2n1C1CCN(C(=O)C2(F)CCN(Cc3cnc(N)nc3)CC2)CC1 [Example 290]
2 nM	CC(C)Oc1nc2cc(F)ccc2n1C1CCN(C(=O)C2(F)CCN(Cc3cnc(N)nc3)CC2)CC1 [Example 326]
1 nM	O=C(C1CCN(Cc2cc[nH]n2)CC1)N1CCC(n2c(-c3ccccn3)nc3cc(F)ccc32)CC1 [Example 442]
1 nM	Nc1ncc(CN2CCC(F)(C(=O)N3CCC(n4c(Oc5ccccc5)nc5cc(F)ccc54)CC3)CC2)cn1 [Example 449]
1 nM	CSc1nc2cc(F)ccc2n1C1CCN(C(=O)C2CCN(Cc3ccnnc3)CC2)CC1 [Example 493]
2 nM	CCOc1nc2cc(F)ccc2n1C1CCN(C(=O)C2CCN(Cc3ccnnc3)CC2)CC1 [Example 512]
2 nM	COc1nc2cc(F)ccc2n1C1CCN(C(=O)C2CCN(Cc3ccnnc3)CC2)CC1 [Example 571]
2 nM	CSc1nc2cc(F)c(F)cc2n1C1CCN(C(=O)C2(F)CCN(Cc3ccnc(N)c3)CC2)CC1 [Example 574]
1 nM	Nc1cc(CCCN2CCC(C(=O)N3CCC(n4c(-c5ccccn5)nc5cccnc54)CC3)CC2)ccn1 [Example 608]
2 nM	CCCc1nc2cc(F)ccc2n1C1CCN(C(=O)C2CCN(Cc3ccnnc3)CC2)CC1 [Example 619]
